Experimental findings from patent US11453666B2, “Autotaxin inhibitory compounds” (Cancer Research Technology Limited, priority 2015, dated 2022) are described below.

For the first assay, the target named is human recombinant ATX (Homo sapiens, UniProt Q13822). Kind of assay: Autotaxin (ATX) activity Quanta Red assay. The class given is biochemical. To be noted: human recombinant ATX 0.8 μg/mL, 2 hours at room temperature, IC50 determined in duplicate; read-out: Activity (ATX activity, Quanta Red assay; IC50). Summed up: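 Recombinant human ATX reaction stopped after 2 h with Quanta Red stop solution; fluorescence read at […]. Controls with DMSO, with and without ATX; IC50 in duplicate.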
For the compound `C[C@H](NC(=O)CCc1nc2ccncc2n1Cc1ccc(F)cc1)c1ccc(F)cc1` [Example 132, 3-[3-(4-Fluoro-benzyl)-3H-imidazo[4,5-c]pyridin-2-yl]-N-[(S)-1-(4-fluoro-phenyl)-ethyl]-propionamide], the IC50 was 52 nM.

Still in this assay, the particulars now being: read-out: Activity (ATX activity, Quanta Red assay; IC50).
`CN(C)CCCOc1ccc(CNC(=O)CCc2nc3ccncc3n2Cc2ccc(OC(F)(F)F)cc2)cc1` [Example 128, N-[4-(3-Dimethylamino-propoxy)-benzyl]-3-[3-(4-trifluoromethoxy-benzyl)-3H-imidazo[4,5-c]pyridin-2-yl]-propionamide]: the IC50 came to 17 nM.

Turning to `O=C(CCc1nc2ccncc2n1Cc1ccc(OC(F)(F)F)cc1)NCc1ccc(Cl)cc1` [Example 129, N-(4-Chloro-benzyl)-3-[3-(4-trifluoromethoxy-benzyl)-3H-imidazo[4,5-c]pyridin-2-yl]-propionamide], the IC50 came to 20 nM.

As for `C[C@H](NC(=O)CCc1nc2ccncc2n1Cc1ccc(F)cc1)c1ccccc1` [Example 130, 3-[3-(4-Fluoro-benzyl)-3H-imidazo[4,5-c]pyridin-2-yl]-N-((S)-1-phenyl-ethyl)-propionamide], the IC50 was found to be 21 nM.

With `Cc1ccc([C@H](C)NC(=O)CCc2nc3ccncc3n2Cc2ccc(F)cc2)cc1` [Example 131, 3-[3-(4-Fluoro-benzyl)-3H-imidazo[4,5-c]pyridin-2-yl]-N-((S)-1-p-tolyl-ethyl)-propionamide], the IC50 stood at 23 nM.

On to `O=C(CCc1nc2ccncc2n1Cc1ccc(OC(F)(F)F)cc1)NCc1ccc(F)cc1` [Example 133, N-(4-Fluoro-benzyl)-3-[3-(4-trifluoromethoxy-benzyl)-3H-imidazo[4,5-c]pyridin-2-yl]-propionamide], for which the IC50 was determined as 52 nM.

As to `CCC[C@H](NC(=O)CCc1nc2ccncc2n1Cc1ccc(F)cc1)c1ccccc1` [Example 134, 3-[3-(4-Fluoro-benzyl)-3H-imidazo[4,5-c]pyridin-2-yl]-N-((S)-1-phenyl-butyl)-propionamide], the IC50 came out at 133 nM.

As to `CC(C)(C)OC(=O)N1CCC(CNC(=O)CCc2nc3ccncc3n2Cc2ccc(OC(F)(F)F)cc2)CC1` [Example 135, 4-({3-[3-(4-Trifluoromethoxy-benzyl)-3H-imidazo[4,5-c]pyridin-2-yl]-propionylamino}-methyl)-piperidine-1-carboxylic acid tert-butyl ester], the IC50 was 1570 nM.

With `CC(C)(NC(=O)CCc1nc2ccncc2n1Cc1ccc(F)cc1)c1ccccc1` [Example 136, 3-[3-(4-Fluoro-benzyl)-3H-imidazo[4,5-c]pyridin-2-yl]-N-(1-methyl-1-phenyl-ethyl)-propionamide], the IC50 stood at 115 nM.

Consider `C[C@H](NC(=O)CCc1cc2cccnc2n1Cc1ccc(OC(F)(F)F)cc1)c1ccc(F)cc1` [Example 137, N—[(S)-1-(4-fluoro-phenyl)-ethyl]-3-[1-(4-trifluoromethoxy-benzyl)-1H-pyrrolo[2,3-b]pyridin-2-yl]-propionamide], for which the IC50 was 10 nM.

Turning to `C[C@H](NC(=O)CCc1cc2cccnc2n1Cc1ccc(Cl)cc1)c1ccc(F)cc1` [Example 138, 3-[1-(4-Chloro-benzyl)-1H-pyrrolo[2,3-b]pyridin-2-yl]-N-[(S)-1-(4-fluoro-phenyl)-ethyl]-propionamide], the IC50 was found to be 10 nM.

`C[C@H](NC(=O)CCc1cc2cc(F)cnc2n1Cc1ccc(OC(F)(F)F)cc1)c1ccc(F)cc1` [Example 139, N-[(S)-1-(4-Fluoro-phenyl)-ethyl]-3-[5-fluoro-1-(4-trifluoromethoxy-benzyl)-1H-pyrrolo[2,3-b]pyridin-2-yl]-propionamide]: the IC50 was determined as 13 nM.

Take `C[C@H](NC(=O)CCc1cc2cccnc2n1Cc1ccc(F)cc1)c1ccc(F)cc1` [Example 140, 3-[1-(4-Fluoro-benzyl)-1H-pyrrolo[2,3-b]pyridin-2-yl]-N-[(S)-1-(4-fluoro-phenyl)-ethyl]-propionamide]: the IC50 was found to be 13 nM.
